The source made the active and inactive calls.
Columns and labels:
[1] = molecular target: Mitogen-activated protein kinase 10 (Homo sapiens, UniProt P53779); assay: Dose response biochemical screening assay for inhibitors of c-Jun N-Terminal Kinase 3 (JNK3). [Related pubchem assays: 746 ]
[2] = molecular target: Muscarinic acetylcholine receptor M1 (Rattus norvegicus, UniProt P08482); assay: rat M1 positive allosteric modulator potency, dose response, cell-based, calcium mobilization, CHO-K1, ACh EC20 (AID 2425); format: functional
[3] = molecular target: E3 ubiquitin-protein ligase Mdm2 (Homo sapiens, UniProt Q00987); assay: enhancers of MDM2-luciferase reporter signal, concentration-effect titration, project on inhibitors of MDM2 ubiquitin ligase, cellular assay, luminescent readout, 384-well plate format (AID 1394); format: functional;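 note: MDM2 E3 inhibitors raise luminescence so EC50 is for signal enhancement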
[4] = A549 cell cytotoxicity, dose response, CellTiter-Glo luminescence, dry powder, set 17 (AID 1117284); format: functional, cell-based
[5] = tested on: Vero; assay: cells; format: functional, cell-based; conditions: Chlorocebus sabaeus
[6] = tested on: Vero; assay: West Nile virus antiviral activity, cell-based, CPE readout (AID 1621); format: functional; conditions: Chlorocebus sabaeus
[7] = HEK293T cytotoxicity, dose response, cytotoxicity control for miR-122 modulator project, cell-based, activator set, cherry-pick (AID 720690); format: functional;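 note: HEK293T human cells scored for general mammalian cytotoxicity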
[8] = molecular target: Sphingosine 1-phosphate receptor 4 (Homo sapiens, UniProt O95977); assay: Fluorescence dose response cell-based high throughput screening assay for antagonists of the Sphingosine 1-Phosphate Receptor 4 (S1P4). [Related pubchem assays: 1524 (Confirmation in triplicates.), 1510 (Primary screen.)]; format: functional
[9] = molecular target: T1, Microphthalmia-associated transcription factor (Homo sapiens, UniProt O75030); assay: TRPM1 promoter luciferase signal decrease, dose response, MITF inhibitor project, cell-based, SK-MEL-5, cherry-picked, set 3 (AID 493073); format: functional
T1 sequence (O75030 whole entry): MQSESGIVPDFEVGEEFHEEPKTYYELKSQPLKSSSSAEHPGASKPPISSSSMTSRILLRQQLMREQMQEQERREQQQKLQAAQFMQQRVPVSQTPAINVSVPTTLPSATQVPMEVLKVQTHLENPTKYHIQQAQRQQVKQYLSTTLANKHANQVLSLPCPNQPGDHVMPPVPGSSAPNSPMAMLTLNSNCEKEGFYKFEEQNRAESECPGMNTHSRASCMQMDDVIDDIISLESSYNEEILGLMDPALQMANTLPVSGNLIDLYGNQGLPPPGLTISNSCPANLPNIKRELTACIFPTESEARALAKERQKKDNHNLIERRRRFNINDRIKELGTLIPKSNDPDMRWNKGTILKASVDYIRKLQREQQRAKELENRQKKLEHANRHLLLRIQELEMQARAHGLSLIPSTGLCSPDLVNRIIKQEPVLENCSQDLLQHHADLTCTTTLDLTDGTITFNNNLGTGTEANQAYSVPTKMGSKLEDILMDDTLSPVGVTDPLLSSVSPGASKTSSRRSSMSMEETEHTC

[10] = molecular target: Sphingosine 1-phosphate receptor 1 (Homo sapiens, UniProt P21453); format: functional;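 note: Tango beta-arrestin reporter U2OS cells stimulated with S1P near its EC80; inhibitor potency meaning antagonism of receptor activation by the natural agonist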
[11] = molecular target: Galanin receptor type 2 (Homo sapiens, UniProt O43603); assay: Dose Response cell-based high-throughput screening assay to identify antagonists of galanin receptor 2 (GALR2). [Related pubchem assays: 828, 866 ]; format: functional
[12] = miR-122 activators in hepatoma reporter cells, dose response, cell-based, Huh7 psiCHECK-miR122, Renilla luciferase, cherry-picked (AID 651956); format: functional;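 note: huh7 hepatoma cells stably carrying a psiCHECK-2 miR-122 sensor plasmid; renilla luciferase signal reporting endogenous miR-122 activity after 48 h compound exposure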
[13] = molecular target: Serine/threonine-protein phosphatase PP1-alpha catalytic subunit (Homo sapiens, UniProt P62136); assay: PP1 phosphatase inhibitors, dose response, biochemical, fluorescence (AID 2394)
[14] = molecular target: T2, Sentrin-specific protease 8 (Homo sapiens, UniProt Q96LD8); format: functional
T2 sequence (Q96LD8 whole entry): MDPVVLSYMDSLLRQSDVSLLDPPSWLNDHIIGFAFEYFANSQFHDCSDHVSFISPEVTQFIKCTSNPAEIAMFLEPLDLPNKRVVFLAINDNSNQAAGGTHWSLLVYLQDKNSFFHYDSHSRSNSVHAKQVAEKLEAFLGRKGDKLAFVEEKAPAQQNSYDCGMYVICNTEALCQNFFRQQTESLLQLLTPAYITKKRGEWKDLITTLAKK

[15] = molecular target: T2, Sentrin-specific protease 8; format: functional; remark: listed apart in the source
[16] = molecular target: T3, Serine/threonine-protein phosphatase (Homo sapiens, UniProt Q9BPW0); assay: PP5 phosphatase inhibitors, dose response, biochemical, fluorescence (AID 2395)
T3 sequence (Q9BPW0 whole entry): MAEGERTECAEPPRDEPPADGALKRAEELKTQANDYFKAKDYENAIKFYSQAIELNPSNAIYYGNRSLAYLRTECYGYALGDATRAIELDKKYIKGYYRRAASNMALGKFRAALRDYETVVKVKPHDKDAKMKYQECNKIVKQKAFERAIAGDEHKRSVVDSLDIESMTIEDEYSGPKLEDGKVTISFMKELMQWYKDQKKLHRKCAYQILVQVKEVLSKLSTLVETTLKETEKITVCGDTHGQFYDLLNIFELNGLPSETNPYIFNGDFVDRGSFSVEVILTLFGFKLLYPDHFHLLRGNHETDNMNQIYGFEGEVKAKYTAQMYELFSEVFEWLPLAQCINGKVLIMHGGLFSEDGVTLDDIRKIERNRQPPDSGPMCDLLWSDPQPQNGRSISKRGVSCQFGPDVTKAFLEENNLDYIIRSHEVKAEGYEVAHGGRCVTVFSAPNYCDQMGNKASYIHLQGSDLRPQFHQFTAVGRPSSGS

[17] = molecular target: T4, Histone-lysine N-methyltransferase NSD2 (Homo sapiens, UniProt O96028); format: biochemical
T4 sequence (O96028 whole entry): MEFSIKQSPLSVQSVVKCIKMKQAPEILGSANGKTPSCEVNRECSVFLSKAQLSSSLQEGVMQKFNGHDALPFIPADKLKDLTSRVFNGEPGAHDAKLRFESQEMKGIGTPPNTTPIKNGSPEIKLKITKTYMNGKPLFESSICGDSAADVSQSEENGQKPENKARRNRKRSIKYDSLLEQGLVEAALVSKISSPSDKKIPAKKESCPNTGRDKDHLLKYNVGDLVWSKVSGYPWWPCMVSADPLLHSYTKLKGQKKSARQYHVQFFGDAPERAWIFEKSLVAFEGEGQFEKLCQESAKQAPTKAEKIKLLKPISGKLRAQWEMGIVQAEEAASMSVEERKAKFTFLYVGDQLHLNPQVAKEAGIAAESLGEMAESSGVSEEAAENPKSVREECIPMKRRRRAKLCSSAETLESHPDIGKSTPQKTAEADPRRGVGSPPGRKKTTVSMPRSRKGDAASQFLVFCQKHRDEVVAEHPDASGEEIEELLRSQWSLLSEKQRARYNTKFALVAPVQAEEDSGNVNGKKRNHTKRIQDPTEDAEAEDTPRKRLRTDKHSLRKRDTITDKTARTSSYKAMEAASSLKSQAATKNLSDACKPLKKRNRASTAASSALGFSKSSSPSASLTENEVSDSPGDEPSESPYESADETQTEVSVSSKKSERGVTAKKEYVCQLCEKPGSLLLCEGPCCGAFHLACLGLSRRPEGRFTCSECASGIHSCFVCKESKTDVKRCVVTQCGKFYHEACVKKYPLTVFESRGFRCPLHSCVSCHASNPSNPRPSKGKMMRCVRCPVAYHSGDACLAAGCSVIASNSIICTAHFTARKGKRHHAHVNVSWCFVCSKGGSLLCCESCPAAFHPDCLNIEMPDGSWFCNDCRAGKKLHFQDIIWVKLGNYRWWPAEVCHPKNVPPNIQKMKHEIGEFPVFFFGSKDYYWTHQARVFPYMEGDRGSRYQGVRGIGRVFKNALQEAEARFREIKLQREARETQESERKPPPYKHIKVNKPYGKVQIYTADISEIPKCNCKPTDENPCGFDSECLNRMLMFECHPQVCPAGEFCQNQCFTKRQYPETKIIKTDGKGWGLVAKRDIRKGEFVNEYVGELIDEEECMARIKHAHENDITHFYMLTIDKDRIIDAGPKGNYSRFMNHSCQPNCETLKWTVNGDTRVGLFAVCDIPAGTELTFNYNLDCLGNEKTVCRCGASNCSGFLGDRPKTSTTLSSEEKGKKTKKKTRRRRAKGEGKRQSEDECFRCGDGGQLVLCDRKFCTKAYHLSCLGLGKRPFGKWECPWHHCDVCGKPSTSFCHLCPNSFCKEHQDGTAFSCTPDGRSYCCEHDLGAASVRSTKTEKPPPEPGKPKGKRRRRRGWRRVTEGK

[18] = inhibitors of Bluetongue virus cytopathic effect, confirmation, arbovirus, BSR cells (AID 1250); format: functional;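 note: protection from viral cytopathic effect measured as cell viability by ATP luminescence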
[19] = molecular target: T5, Carboxy-terminal domain RNA polymerase II polypeptide A small phosphatase 1 (Homo sapiens, UniProt Q9GZU7); assay: inhibitors of CTDSP1, concentration-response testing, biochemical assay, absorbance-based, actives from ultra-high-throughput screening (AID 540297); format: functional
T5 sequence (Q9GZU7 whole entry): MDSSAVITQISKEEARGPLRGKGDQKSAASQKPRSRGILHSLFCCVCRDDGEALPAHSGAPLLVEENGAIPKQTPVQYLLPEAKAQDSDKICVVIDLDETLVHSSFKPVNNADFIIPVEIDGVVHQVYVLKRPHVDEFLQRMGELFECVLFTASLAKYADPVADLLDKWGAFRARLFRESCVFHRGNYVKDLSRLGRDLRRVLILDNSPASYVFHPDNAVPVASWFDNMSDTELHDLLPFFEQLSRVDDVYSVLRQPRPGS

[20] = SNU-C1 cell viability reduction, dose response, CellTiter-Glo luminescence (AID 1117323); format: functional, cell-based
[21] = cells; format: functional, cell-based; conditions: INS-1E
[22] = CellTiter-Glo luminescent dose response of DLD-1 viability loss (AID 1117352); format: functional
[23] = cytotoxicity toward HCT116 cells – cell-based, CellTiter-Glo luminescence, IC50, dose response (AID 1117332); format: functional; conditions: HCT-116
[24] = Dose-response inhibition of insulin secretion in a rat insulinoma line at 5 mM glucose (AID 1117331); format: functional, cell-based; conditions: INS-1E
[25] = Concentration-dependent survival of SW480 colon cancer line, luminescence detection with CellTiter-Glo, half-maximal inhibitory concentration (AID 1117338); format: functional
[26] = RKO cell viability reduction, dose response, CellTiter-Glo luminescence (AID 1117322); format: functional
[27] = HCT116 cell viability decrease, GSK3B pretreatment – CellTiter-Glo, IC50, dose response (AID 1117339); format: functional; conditions: HCT-116
[28] = cytotoxicity toward HT-29 cells – cell-based, CellTiter-Glo luminescence, IC50, dose response (AID 1117330); format: functional
[29] = Jurkat T cell cytotoxicity, dose response, cytotoxicity control for P. falciparum gametocyte viability project, luminescence (AID 1117277); format: functional, cell-based;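 note: potency reflects loss of cellular ATP meaning fewer viable cells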
[30] = P. falciparum late gametocyte killing, dose response, luminescence (AID 1117278); format: functional, cell-based;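 note: gametocytes exposed to compound for 24 hours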
[31] = THP-1 cell cytotoxicity, dose response, cytotoxicity control for Vif-APOBEC3G degradation inhibitor project, THP-1 cells (AID 1117359); format: functional; conditions: Human immunodeficiency virus 1, THP-1
[32] = molecular target: Induced myeloid leukemia cell differentiation protein Mcl-1 (Homo sapiens, UniProt Q07820); format: functional
Sequence of Induced myeloid leukemia cell differentiation protein Mcl-1 (Q07820 whole entry): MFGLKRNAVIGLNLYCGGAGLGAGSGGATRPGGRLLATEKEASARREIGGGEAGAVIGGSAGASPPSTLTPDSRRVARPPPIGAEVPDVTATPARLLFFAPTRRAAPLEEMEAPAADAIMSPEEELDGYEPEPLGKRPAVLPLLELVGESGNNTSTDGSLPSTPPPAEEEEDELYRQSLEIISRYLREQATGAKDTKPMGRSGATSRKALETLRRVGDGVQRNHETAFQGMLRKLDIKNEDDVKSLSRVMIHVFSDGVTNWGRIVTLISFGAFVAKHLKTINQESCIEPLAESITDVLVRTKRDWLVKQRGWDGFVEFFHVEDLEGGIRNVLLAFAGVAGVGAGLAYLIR

Sequence of Muscarinic acetylcholine receptor M1 (P08482 whole entry): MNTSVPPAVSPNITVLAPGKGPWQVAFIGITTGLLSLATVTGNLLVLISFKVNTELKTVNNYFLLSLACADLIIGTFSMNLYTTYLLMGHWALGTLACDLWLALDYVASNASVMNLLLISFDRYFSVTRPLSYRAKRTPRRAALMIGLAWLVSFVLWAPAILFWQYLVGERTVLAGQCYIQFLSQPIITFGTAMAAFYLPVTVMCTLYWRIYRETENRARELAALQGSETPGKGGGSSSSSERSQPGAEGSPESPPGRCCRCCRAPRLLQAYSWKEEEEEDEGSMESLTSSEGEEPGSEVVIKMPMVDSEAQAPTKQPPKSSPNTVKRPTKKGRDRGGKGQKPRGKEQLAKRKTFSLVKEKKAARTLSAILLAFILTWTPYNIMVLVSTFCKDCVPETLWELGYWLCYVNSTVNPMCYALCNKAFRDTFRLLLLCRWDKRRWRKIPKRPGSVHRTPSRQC
Sequence of Mitogen-activated protein kinase 10 (P53779 whole entry): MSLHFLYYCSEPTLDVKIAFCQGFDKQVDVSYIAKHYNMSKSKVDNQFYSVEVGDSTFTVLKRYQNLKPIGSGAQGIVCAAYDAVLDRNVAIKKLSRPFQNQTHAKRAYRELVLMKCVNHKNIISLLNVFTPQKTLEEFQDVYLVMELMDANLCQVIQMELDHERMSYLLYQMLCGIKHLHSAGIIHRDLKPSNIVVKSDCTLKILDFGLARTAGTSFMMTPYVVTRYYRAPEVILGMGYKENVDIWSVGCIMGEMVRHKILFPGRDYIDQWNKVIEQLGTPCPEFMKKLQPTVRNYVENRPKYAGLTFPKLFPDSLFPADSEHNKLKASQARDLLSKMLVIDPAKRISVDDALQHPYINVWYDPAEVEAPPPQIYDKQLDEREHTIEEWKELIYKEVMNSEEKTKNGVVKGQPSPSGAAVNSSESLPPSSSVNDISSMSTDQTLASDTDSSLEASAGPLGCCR
Sequence of E3 ubiquitin-protein ligase Mdm2 (Q00987 whole entry): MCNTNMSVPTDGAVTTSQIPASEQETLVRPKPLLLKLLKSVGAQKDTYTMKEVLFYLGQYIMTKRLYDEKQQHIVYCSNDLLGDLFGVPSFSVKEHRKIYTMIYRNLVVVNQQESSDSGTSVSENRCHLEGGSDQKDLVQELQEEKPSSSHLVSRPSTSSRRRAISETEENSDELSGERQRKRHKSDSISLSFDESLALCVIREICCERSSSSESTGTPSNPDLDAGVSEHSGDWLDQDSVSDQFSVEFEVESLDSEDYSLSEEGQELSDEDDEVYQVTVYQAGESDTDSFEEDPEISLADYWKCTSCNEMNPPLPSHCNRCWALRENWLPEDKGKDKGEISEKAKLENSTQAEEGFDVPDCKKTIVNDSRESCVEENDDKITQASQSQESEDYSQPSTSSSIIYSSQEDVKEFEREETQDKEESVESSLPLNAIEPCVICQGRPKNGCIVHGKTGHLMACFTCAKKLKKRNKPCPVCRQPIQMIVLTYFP
Sequence of Serine/threonine-protein phosphatase PP1-alpha catalytic subunit (P62136 whole entry): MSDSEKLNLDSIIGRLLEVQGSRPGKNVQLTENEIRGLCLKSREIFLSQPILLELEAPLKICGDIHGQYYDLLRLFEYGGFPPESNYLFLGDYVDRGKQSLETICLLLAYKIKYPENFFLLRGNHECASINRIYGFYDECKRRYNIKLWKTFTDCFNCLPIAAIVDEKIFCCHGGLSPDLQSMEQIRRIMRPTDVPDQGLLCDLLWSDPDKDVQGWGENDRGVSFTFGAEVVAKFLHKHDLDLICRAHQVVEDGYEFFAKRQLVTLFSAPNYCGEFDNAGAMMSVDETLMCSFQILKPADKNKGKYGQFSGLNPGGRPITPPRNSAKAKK
Sequence of Sphingosine 1-phosphate receptor 1 (P21453 whole entry): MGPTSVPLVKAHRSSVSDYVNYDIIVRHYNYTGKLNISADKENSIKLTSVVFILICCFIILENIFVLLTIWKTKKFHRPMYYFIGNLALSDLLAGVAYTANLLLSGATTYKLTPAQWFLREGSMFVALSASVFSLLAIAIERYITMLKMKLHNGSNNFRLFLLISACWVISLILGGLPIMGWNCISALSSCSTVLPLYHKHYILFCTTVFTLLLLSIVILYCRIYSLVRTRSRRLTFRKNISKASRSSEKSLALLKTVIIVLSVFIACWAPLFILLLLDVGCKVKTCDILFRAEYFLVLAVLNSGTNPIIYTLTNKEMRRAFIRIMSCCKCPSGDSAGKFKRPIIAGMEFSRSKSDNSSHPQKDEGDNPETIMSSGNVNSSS
Sequence of Galanin receptor type 2 (O43603 whole entry): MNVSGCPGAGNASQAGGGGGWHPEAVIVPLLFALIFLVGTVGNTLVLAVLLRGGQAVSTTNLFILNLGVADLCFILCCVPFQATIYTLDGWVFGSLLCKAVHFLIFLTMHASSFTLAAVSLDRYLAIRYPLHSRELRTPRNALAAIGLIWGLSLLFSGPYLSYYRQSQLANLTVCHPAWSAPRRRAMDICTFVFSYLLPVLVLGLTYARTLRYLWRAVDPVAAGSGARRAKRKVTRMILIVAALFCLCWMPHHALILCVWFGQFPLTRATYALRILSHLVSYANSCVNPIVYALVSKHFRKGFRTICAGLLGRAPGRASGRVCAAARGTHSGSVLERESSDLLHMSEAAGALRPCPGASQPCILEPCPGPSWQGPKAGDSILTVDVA
Sequence of Sphingosine 1-phosphate receptor 4 (O95977 whole entry): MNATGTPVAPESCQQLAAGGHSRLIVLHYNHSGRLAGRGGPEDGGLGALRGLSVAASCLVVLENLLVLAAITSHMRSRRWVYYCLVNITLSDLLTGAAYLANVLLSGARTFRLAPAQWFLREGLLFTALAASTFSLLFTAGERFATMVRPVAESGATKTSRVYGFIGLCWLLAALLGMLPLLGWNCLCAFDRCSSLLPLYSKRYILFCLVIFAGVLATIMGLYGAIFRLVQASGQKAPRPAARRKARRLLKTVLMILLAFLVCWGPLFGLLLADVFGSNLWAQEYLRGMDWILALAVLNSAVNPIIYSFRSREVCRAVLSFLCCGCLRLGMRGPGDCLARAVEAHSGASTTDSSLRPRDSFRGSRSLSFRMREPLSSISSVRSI

c1csc(-c2cnc3ccccc3n2)c1
IC50 [1]: 34 µM (not active)

Cn1cc(-c2cc(F)c(CN3C(=O)C(=O)c4cccc(F)c43)c(F)c2)cn1
EC50 [2]: 1.03 µM (active)

O=C(c1cccc(F)c1)N1CCCC(C(=O)N2CCCC2)C1 (configuration not stated)
IC50 [1]: > 93.1 µM (not active)

Cc1noc(C)c1COc1ccc(C(=O)NCc2ccccn2)cc1
EC50 [3]: 2.96 µM (not active)

COc1cccc(-c2ccc(CN(C)C[C@@H]3Oc4cc(C#C[C@@H](C)O)ccc4S(=O)(=O)N([C@@H](C)CO)C[C@@H]3C)cc2)c1
AC50 [4]: 32.6 µM (active)

CN(C)CCNC(=O)c1cc2sc3ccccc3c2s1
IC50 [5]: 21 µM (active)
IC50 [6]: 24.5 µM (active)

CCN(CC)CCNC(=O)C1CCN(S(=O)(=O)c2c(C)noc2/C=C/c2ccccc2F)CC1
IC50 [6]: 25 µM (active)

CCc1ccccc1NC(=O)CN(C)C(=O)Cn1ncc(Cl)c(Cl)c1=O
AC50 [7]: 4.59 µM (active)
IC50 [8]: 2.11 µM (active)
AC50 [9]: 11 µM (active)
IC50 [10]: 13.6 µM (not active)
IC50 [11]: 7.62 µM (active)
AC50 [12]: 13.2 µM (active)

CCOc1ccc(NC(S)=Nc2ccc3nsnc3c2)cc1
IC50 [13]: > 67 µM (not active)
IC50 [14]: 2.32 µM (active)
IC50 [15]: 5.72 µM (active)
IC50 [16]: 8.78 µM (active)
AC50 [17]: 4.61 µM (active)

COc1ccc(-c2ccc3c(c2)O[C@@H](CN(C)Cc2ccc(-c4ccccc4)cc2)[C@@H](C)CN([C@@H](C)CO)S3(=O)=O)cc1
AC50 [4]: 32.6 µM (active)

O=C(COC(=O)c1ccc(NS(=O)(=O)c2cccs2)cc1)Nc1nc2c(F)c(F)c(F)cc2s1
IC50 [18]: 46.2 µM (active)
IC50 [19]: 4.05 µM (active)

Cc1c(C)n(Cc2ccccc2)c2ccc(C(=O)OCCN(C)C)cc12 [INDOCATE]
IC50 [20]: 12 µM (inactive)
IC50 [21]: 14.9 µM (inactive)
IC50 [22]: 11.3 µM (inactive)
IC50 [23]: 11.8 µM (inactive)
IC50 [24]: 3.84 µM (active)
IC50 [25]: 8.78 µM (inactive)
IC50 [26]: 12.8 µM (inactive)
IC50 [27]: 5.47 µM (inactive)
IC50 [28]: > 6.67 µM (inactive)

Cn1cc(-c2ccc(CN3C(=O)C(=O)c4c(F)ccc(F)c43)c(F)c2)cn1
EC50 [2]: 1.23 µM (active)

Cc1cc(C(=O)Nc2cccc3ccccc23)n(-c2ccccc2)n1
EC50 [3]: 25 µM (not active)

COc1ccc(N2C(=O)CSC23C(=O)N2CCCc4cccc3c42)cc1 (configuration not stated)
IC50 [29]: > 83.3 µM (inactive)
IC50 [30]: > 109 µM (inactive)

Cc1cc(C(=O)COC(=O)c2cc(O)c3ccccc3c2O)c(C)n1CC1CCCO1 (configuration not stated)
CC50 [31]: 25.9 µM (active)
IC50 [32]: 3.09 µM (active)
